Structures can show the parent of a compound that is named as a salt.
How the values were obtained:
PPARγ-RXRα heterodimer = target: T1, PPARγ-RXRα heterodimer (Homo sapiens, UniProt P37231); assay: PPARγ-RXRα heterodimer ligand activity (luciferase reporter); type: cell-based; settings: PPARγ:RXRα:4ERPP/CHO-K1 cells, 18-24 hr, concentration showing 50% of the maximum induction rate
T1 construct: expressed in transfected cells; host or cells: CHO-K1
T1 sequence (P37231 1-505): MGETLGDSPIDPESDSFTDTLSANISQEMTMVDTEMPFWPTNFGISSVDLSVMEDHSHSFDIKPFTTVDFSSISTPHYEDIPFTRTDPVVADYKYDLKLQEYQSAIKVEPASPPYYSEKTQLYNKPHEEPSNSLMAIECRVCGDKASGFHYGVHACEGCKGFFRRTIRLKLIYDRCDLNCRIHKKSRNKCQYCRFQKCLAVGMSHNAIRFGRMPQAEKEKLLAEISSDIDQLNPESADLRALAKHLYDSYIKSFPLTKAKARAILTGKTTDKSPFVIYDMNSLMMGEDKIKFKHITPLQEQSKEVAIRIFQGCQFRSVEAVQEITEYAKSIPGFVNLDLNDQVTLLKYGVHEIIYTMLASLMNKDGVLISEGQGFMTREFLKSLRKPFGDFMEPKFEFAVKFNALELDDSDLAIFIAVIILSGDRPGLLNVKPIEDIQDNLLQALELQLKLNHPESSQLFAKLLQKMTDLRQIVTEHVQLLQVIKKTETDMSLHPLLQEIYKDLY
T1 sequence (P19793 1-462 partner): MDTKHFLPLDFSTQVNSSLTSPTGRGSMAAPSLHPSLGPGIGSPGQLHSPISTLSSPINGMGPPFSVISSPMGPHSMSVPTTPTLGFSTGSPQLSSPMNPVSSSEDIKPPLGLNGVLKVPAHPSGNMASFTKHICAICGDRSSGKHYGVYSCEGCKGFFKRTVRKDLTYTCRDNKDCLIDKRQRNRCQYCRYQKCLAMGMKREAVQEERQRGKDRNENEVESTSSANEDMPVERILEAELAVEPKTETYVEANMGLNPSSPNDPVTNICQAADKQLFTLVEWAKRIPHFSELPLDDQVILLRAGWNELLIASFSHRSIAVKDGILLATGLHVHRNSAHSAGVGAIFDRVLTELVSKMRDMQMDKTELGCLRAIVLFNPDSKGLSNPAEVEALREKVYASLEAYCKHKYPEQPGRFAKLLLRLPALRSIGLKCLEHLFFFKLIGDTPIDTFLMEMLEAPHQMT
Procedure: The PPARγ:RXRα:4ERPP/CHO-K1 cells described in WO03/099793 were cultured in a Ham F12 medium [manufactured by Life Technologies, Inc., US] containing 10% calf fetal serum [manufactured by Life Technologies, Inc., US], sown in a 96-well white plate [manufactured by Corning Coster Corporation, US] at 2×10^4 cells/well, and incubated overnight in a carbon dioxide gas incubator at 37° C.
Then, the medium was removed from the 96 well white plate, 80 μl of Ham F12 medium containing 0.1% fatty acid-free bovine serum albumin (BSA) and a test compound (20 μl) were added, and the cells were incubated for 18-24 hr in a carbon dioxide gas incubator at 37° C. The medium was removed, 40 μl of PicaGene 7.5 (manufactured by Wako Pure Chemical Industries, Ltd.) diluted 2-fold with HBSS (HANKS' BALANCED SALT SOLUTION) [manufactured by BIO WHITTAKER, US] was added. After stirring, the luciferase activity was determined using the 1420 ARVO Multilabel Counter [manufactured by PerkinElmer, US].
The induction rate was calculated from the luciferase activity of each test compound based on the luciferase activity of the test compound non-administration group as 1. The test compound concentration and the induction rate were analyzed by PRISM [manufactured by GraphPad Software, Inc., US] to calculate EC50 value (compound concentration showing 50% of the maximum value of induction rate) of the test compound.

Structure (SMILES) | EC50 (PPARγ-RXRα heterodimer) | melting point
CCCOc1cc(CCCOc2c(CC(=O)O)cccc2OC)n(C(C)c2ccc(Cl)cc2Cl)n1 (stereo not shown) [Example 19, [2-(3-{1-[1-(2,4-dichlorophenyl)ethyl]-3-propoxy-1H-pyrazol-5-yl}propoxy)-3-methoxyphenyl]acetic acid] | 3.2 nM | –
CC(C)c1cc(CCCOc2nn(C)cc2CC(=O)O)n(Cc2ccc(Cl)cc2Cl)n1 [Example 33, (3-{3-[1-(2,4-dichlorobenzyl)-3-isopropyl-1H-pyrazol-5-yl]propoxy}-1-methyl-1H-pyrazol-4-yl)acetic acid] | 30 nM | 67 to 68 °C
CC(C)c1cc(CCCOc2nn(Cc3ccccc3)cc2CC(=O)O)n(Cc2ccc(Cl)cc2Cl)n1 [Example 34, (1-benzyl-3-{3-[1-(2,4-dichlorobenzyl)-3-isopropyl-1H-pyrazol-5-yl]propoxy}-1H-pyrazol-4-yl)acetic acid 1/2 calcium salt] | 1.7 nM | –
Cc1nc(OCCCc2cc(OC(C)C)nn2Cc2ccc(Cl)cc2Cl)c(CC(=O)O)s1 [Example 36, (4-{3-[1-(2,4-dichlorobenzyl)-3-isopropoxy-1H-pyrazol-5-yl]propoxy}-2-methyl-1,3-thiazol-5-yl)acetic acid] | 20 nM | 75 to 77 °C
Cc1cc(Cl)ccc1Cn1nc(OC(C)C)cc1CCCOc1nn(Cc2ccccc2)cc1CC(=O)O [Example 73, (1-benzyl-3-{3-[1-(4-chloro-2-methylbenzyl)-3-isopropoxy-1H-pyrazol-5-yl]propoxy}-1H-pyrazol-4-yl)acetic acid] | 3 nM | 81 to 82 °C
Cc1cc(C(F)(F)F)ccc1Cn1nc(OC(C)C)cc1CCCOc1ncccc1CC(=O)O [Example 80, [2-(3-{3-isopropoxy-1-[2-methyl-4-(trifluoromethyl)benzyl]-1H-pyrazol-5-yl}propoxy)pyridin-3-yl]acetic acid] | 5.4 nM | 105 to 107 °C
CCCOc1cc(CCCOc2c(CC(=O)O)cccc2OC)n(Cc2ccccc2OC)n1 [Example 83, (2-{3-[1-(2-methoxybenzyl)-3-propoxy-1H-pyrazol-5-yl]propoxy}-3-methoxyphenyl)acetic acid] | 18 nM | 79 to 82 °C
CC(C)Oc1ccc(CCCOc2nn(C)cc2CCC(=O)O)c(Oc2ncc(C(F)(F)F)cc2Cl)c1 [Example 145, 3-{3-[3-(2-{[3-chloro-5-(trifluoromethyl)pyridin-2-yl]oxy}-4-isopropoxyphenyl)propoxy]-1-methyl-1H-pyrazol-4-yl}propanoic acid] | 2.6 nM | –
CC(C)Oc1cc(COc2cc(CCC(=O)O)n(-c3ccccc3)n2)cc(COc2ncc(C(F)(F)F)cc2Cl)c1 [Example 203, 3-(3-{[3-({[3-chloro-5-(trifluoromethyl)pyridin-2-yl]oxy}methyl)-5-isopropoxybenzyl]oxy}-1-phenyl-1H-pyrazol-5-yl)propanoic acid] | – | 140 to 142 °C
COCOc1cc(CCCOc2ncccc2CC(=O)O)n(Cc2ccc(Cl)cc2Cl)n1 [Example 207, (2-{3-[1-(2,4-dichlorobenzyl)-3-(methoxymethoxy)-1H-pyrazol-5-yl]propoxy}pyridin-3-yl)acetic acid] | – | 101 to 102 °C

The next lines start with the values.

EC50 (PPARγ-RXRα heterodimer) | melting point | Structure (SMILES)
2.7 nM | 101 to 102 °C | COc1cccc(CC(=O)O)c1OCCCc1cc(C(C)C)nn1Cc1ccc(Cl)cc1Cl [Example 35, (2-{3-[1-(2,4-dichlorobenzyl)-3-isopropyl-1H-pyrazol-5-yl]propoxy}-3-methoxyphenyl)acetic acid]
6.4 nM | 111 to 112 °C | CC(C)c1cc(CCCOc2ncccc2CC(=O)O)n(Cc2ccc(Cl)cc2Cl)n1 [Example 37, (2-{3-[1-(2,4-dichlorobenzyl)-3-isopropyl-1H-pyrazol-5-yl]propoxy}pyridin-3-yl)acetic acid]
23 nM | 122 to 123 °C | CCCOc1cc(CCCOc2c(CC(=O)O)cccc2OC)n(Cc2ccc(C(F)(F)F)cc2)n1 [Example 59, [3-methoxy-2-(3-{3-propoxy-1-[4-(trifluoromethyl)benzyl]-1H-pyrazol-5-yl}propoxy)phenyl]acetic acid]
39 nM | – | CC(C)Oc1cc(CCCOc2nn(Cc3ccccc3)cc2CC(=O)O)n(Cc2ccc(Cl)cc2OC(C)C)n1 [Example 71, (1-benzyl-3-{3-[1-(4-chloro-2-isopropoxybenzyl)-3-isopropoxy-1H-pyrazol-5-yl]propoxy}-1H-pyrazol-4-yl)acetic acid]
1.9 nM | – | CC(C)c1cc(CCCOc2nn(Cc3ccccc3)cc2CC(=O)O)n(Cc2ccc(C(F)(F)F)cc2Cl)n1 [Example 75, [1-benzyl-3-(3-{1-[2-chloro-4-(trifluoromethyl)benzyl]-3-isopropyl-1H-pyrazol-5-yl}propoxy)-1H-pyrazol-4-yl]acetic acid]
26 nM | 77 to 80 °C | CCCOc1cc(CCCOc2c(CC(=O)O)cccc2OC)n(Cc2ccc(F)cc2F)n1 [Example 82, (2-{3-[1-(2,4-difluorobenzyl)-3-propoxy-1H-pyrazol-5-yl]propoxy}-3-methoxyphenyl)acetic acid]
2.6 nM | 120 to 122 °C | CC(C)Oc1cc(CCCOc2ccc3ccccc3c2CC(=O)O)n(Cc2ccc(Cl)cc2Cl)n1 [Example 85, (2-{3-[1-(2,4-dichlorobenzyl)-3-isopropoxy-1H-pyrazol-5-yl]propoxy}-1-naphthyl)acetic acid]
5.1 nM | 121 to 123 °C | CC(C)Oc1cc(CCCOc2nn(Cc3ccccc3)cc2CC(=O)O)n(Cc2ccc(F)cc2Cl)n1 [Example 92, (1-benzyl-3-{3-[1-(2-chloro-4-fluorobenzyl)-3-isopropoxy-1H-pyrazol-5-yl]propoxy}-1H-pyrazol-4-yl)acetic acid]
42 nM | 90 to 91 °C | CC(C)Oc1cc(CCCOc2ncccc2CC(=O)O)n(Cc2ccc(F)cc2Cl)n1 [Example 93, (2-{3-[1-(2-chloro-4-fluorobenzyl)-3-isopropoxy-1H-pyrazol-5-yl]propoxy}pyridin-3-yl)acetic acid]
5.1 nM | 100.4 to 101.4 °C | CCS(=O)(=O)CCOc1cc(CCCOc2nn(Cc3ccccc3)cc2CC(=O)O)n(Cc2ccc(Cl)cc2Cl)n1 [Example 98, [1-benzyl-3-(3-{1-(2,4-dichlorobenzyl)-3-[2-(ethylsulfonyl)ethoxy]-1H-pyrazol-5-yl}propoxy)-1H-pyrazol-4-yl]acetic acid]
1.2 nM | 111 to 113 °C | CC(C)Oc1ccc(CCCOc2nn(Cc3ccccc3)cc2CC(=O)O)c(Oc2ncc(Cl)cc2Cl)c1 [Example 133, [1-benzyl-3-(3-{2-[(3,5-dichloropyridin-2-yl)oxy]-4-isopropoxyphenyl}propoxy)-1H-pyrazol-4-yl]acetic acid]
– | 55 to 58 °C | CC(C)Oc1cc(COc2ccc(C(F)(F)F)cc2)cc(COc2cc(CCC(=O)O)n(-c3ccccc3)n2)c1 [Example 202, 3-{3-[(3-isopropoxy-5-{[4-(trifluoromethyl)phenoxy]methyl}benzyl)oxy]-1-phenyl-1H-pyrazol-5-yl}propanoic acid]
– | 151.5 to 152 °C | CCOc1cc(COc2cc(CCC(=O)O)n(-c3ccccc3)n2)cc(COc2ccc(Cl)cc2Cl)c1 [Example 204, 3-[3-({3-[(2,4-dichlorophenoxy)methyl]-5-ethoxybenzyl}oxy)-1-phenyl-1H-pyrazol-5-yl]propanoic acid]
